Source: patent US20230200393A1, “SELECTIVE HERBICIDES BASED ON SUBSTITUTED ISOXAZOLIN CARBOXAMIDES AND METCAMIFEN” (Bayer Aktiengesellschaft, priority 2020, published 2023)

Key:
TRZAS Triso [1] = assay: Safener seed treatment, pre-emergence herbicide crop damage; type: in vivo, spring wheat; conditions: 21 (Final) DAT; for HER effect: no safener
Description: (§1) For the safener seed treatment, sufficient seeds of the respective crops (spring wheat, TRZAS; spring barley, HORVS; maize, ZEAMA) were weighed into screw top glass bottles approximately twice the volume of the seeds.
(§2) The specified safeners, formulated as wettable powder (WP) were weighed out so that the specified rates (g a.i./kg seed) would be obtained, dissolved in water (1 ml water per 10 g of seeds), and added to the seeds to produce a slurry.
(§3) The bottles were capped and then placed in an overhead shaker (set at medium speed for ca. 60 minutes) so that the seeds were evenly coated with the slurry. The bottles were uncapped and the seeds were either placed on paper and dried for an interval of 3-4 hours prior to sowing, or directly sown. Seeds were placed in sandy loam soil in pots of a diameter of 7-8 cm, and covered with soil.
(§4) Pre-emergence application of the specified herbicides was done subsequently, on two sets of plants:
(§5) a) seed treatment with safener, as described above
(§6) The herbicides were formulated as WP and was sprayed onto the soil surface as an aqueous suspension at an equivalent water application rate of 300 l/ha.
(§7) After application, the test plants were kept in the greenhouse under good growth conditions. At intervals up to 4 weeks after application (=28 days after treatment; DAT), % crop damage observed on the treated plants was scored visually in comparison to control plants that had not received any safener or herbicide treatment.
(§8) Values in the table below are mean values of at least 2 replicates.

ZEAMA Sileno [2] = assay: as above; type: in vivo, maize; conditions: for HER effect: no safener
Description: as §1, §2, §3, §4, §5, §6, §7, §8

ZEAMA Sileno [3] = assay: Tank-mix post-emergence crop damage, herbicide with/without safener metcamifen; type: in vivo, maize; conditions: for HER effect + SAF / Reduction [Difference] / Reduction [%]: Final; for HER effect: no safener, Final assessment, post-emergence
Description: (§9) Seeds of crops (spring wheat, TRZAS; spring barley, HORVS; maize, ZEAMA) were placed in sandy loam soil in peat pots, covered with soil and cultivated in a greenhouse under good growth conditions. Two to three weeks after sowing, the test plants were treated at the 1 to 3-leaf stage. The herbicide/safener active compound combinations according to the invention, formulated as wettable powders or emulsion concentrates, and, in parallel tests, the correspondingly formulated individual active compounds were sprayed onto the green parts of the plants in various dosages using an amount of water of 300 l/ha (converted).
(§10) The pots were returned under good growing conditions in a glasshouse and a visual assessment of herbicidal effects was made at intervals from 1 to 3 weeks after herbicide application (DAT=days after treatment). Assessment was on a percentage basis in comparison with untreated control plants (0%=no injury, 100%=complete kill).

TRZAS Triso [4] = assay: as above; type: in vivo, spring wheat; conditions: 21 DAT
Description: as §9, §10

[5] = HER 5 g a.i./ha + metcamifen seed treatment 0.25 g a.i./kg seed
[6] = HER 40 g a.i./ha + metcamifen seed treatment 0.25 g a.i./kg seed, 14 DAT
[7] = HER 40 g a.i./ha + metcamifen seed treatment 0.25 g a.i./kg seed, 26 DAT
[8] = HER 80 g a.i./ha + metcamifen seed treatment 0.25 g a.i./kg seed, 14 DAT
[9] = HER 8 g a.i./ha + metcamifen 100 g a.i./ha
[10] = HER 32 g a.i./ha + metcamifen 50 g a.i./ha
[11] = HER 15 g a.i./ha + metcamifen seed treatment 0.25 g a.i./kg seed
[12] = HER 40 g a.i./ha pre-emergence, 14 DAT
[13] = HER 80 g a.i./ha + metcamifen seed treatment 0.25 g a.i./kg seed, 26 DAT
[14] = HER 0.5 g a.i./ha + metcamifen 50 g a.i./ha
[15] = HER 2 g a.i./ha + metcamifen 50 g a.i./ha
[16] = HER 8 g a.i./ha + metcamifen 50 g a.i./ha
[17] = HER 32 g a.i./ha + metcamifen 100 g a.i./ha

C=CC1(C(=O)NC2COC(C(=O)OC)C2)CC(c2cc(F)cc(F)c2)=NO1 (mixture of isomers) [Example 1.68]
HER effect + SAF (TRZAS Triso [1]; [5]): 10%
Reduction [%] (TRZAS Triso [1]; [5]): 78%
HER effect + SAF (ZEAMA Sileno [2]; [6]): 30%
Reduction [%] (ZEAMA Sileno [2]; [6]): 68%
Reduction [Difference] (ZEAMA Sileno [2]; [6]): 63
Reduction [%] (ZEAMA Sileno [2]; [7]): 74%
Reduction [Difference] (ZEAMA Sileno [2]; [7]): 70
HER effect (ZEAMA Sileno [2]; HER 40 g a.i./ha pre-emergence, 26 DAT): 95%
HER effect + SAF (ZEAMA Sileno [2]; [8]): 75%
Reduction [%] (ZEAMA Sileno [2]; [8]): 23%
Reduction [Difference] (ZEAMA Sileno [2]; [8]): 22
HER effect (ZEAMA Sileno [2]; HER 80 g a.i./ha pre-emergence, 14 DAT): 97%
HER effect + SAF (ZEAMA Sileno [3]; [9]): 48%
Reduction [Difference] (ZEAMA Sileno [3]; [9]): 48
HER effect (ZEAMA Sileno [3]; HER 8 g a.i./ha): 96%
HER effect + SAF (ZEAMA Sileno [3]; [10]): 67%
Reduction [%] (ZEAMA Sileno [3]; [10]): 32%
Reduction [Difference] (ZEAMA Sileno [3]; [10]): 31
HER effect (ZEAMA Sileno [3]; HER 32 g a.i./ha): 98%

COC(=O)C1COCC1NC(=O)C1(C)CC(c2cc(F)cc(F)c2)=NO1 (mixture of isomers) [Example 1.93]
HER effect + SAF (TRZAS Triso [1]; [5]): 5%
Reduction [%] (TRZAS Triso [1]; [5]): 86%
Reduction [Difference] (TRZAS Triso [1]; [5]): 30
HER effect (TRZAS Triso [1]; HER 5 g a.i./ha pre-emergence): 35%
HER effect + SAF (TRZAS Triso [1]; [11]): 10%
Reduction [%] (TRZAS Triso [1]; [11]): 85%
Reduction [Difference] (TRZAS Triso [1]; [11]): 55
HER effect (TRZAS Triso [1]; HER 15 g a.i./ha pre-emergence): 65%

COCCOC(=O)C1C=CC(NC(=O)C2(C(F)(F)F)CC(c3cc(F)cc(C#N)c3)=NO2)C1 (stereo not drawn) [Example 1.2]
HER effect + SAF (ZEAMA Sileno [2]; [6]): 20%
Reduction [%] (ZEAMA Sileno [2]; [6]): 50%
Reduction [Difference] (ZEAMA Sileno [2]; [6]): 20
HER effect (ZEAMA Sileno [2]; [12]): 40%

COCCOC(=O)C1C=CC(NC(=O)C2(C)CC(c3cc(Cl)cc(C#N)c3)=NO2)C1 (stereo not drawn) [Example 1.5]
HER effect + SAF (ZEAMA Sileno [2]; [8]): 35%
Reduction [%] (ZEAMA Sileno [2]; [8]): 42%
HER effect + SAF (ZEAMA Sileno [2]; [13]): 25%
Reduction [%] (ZEAMA Sileno [2]; [13]): 44%

CSCCOC(=O)C1C=CC(NC(=O)C2(C(F)(F)F)CC(c3cc(F)cc(F)c3)=NO2)C1 (stereo not drawn) [Example 1.7]
HER effect + SAF (ZEAMA Sileno [2]; [6]): 55%
Reduction [%] (ZEAMA Sileno [2]; [6]): 34%
Reduction [Difference] (ZEAMA Sileno [2]; [6]): 28
Reduction [%] (ZEAMA Sileno [2]; [7]): 44%
Reduction [Difference] (ZEAMA Sileno [2]; [7]): 20
HER effect (ZEAMA Sileno [2]; [12]): 83%

C=CC1(C(=O)NC2C=CC(C(=O)OC)C2)CC(c2cc(F)cc(F)c2)=NO1 (stereo not drawn) [Example 1.26]
HER effect (ZEAMA Sileno [2]; [12]): 25%
Reduction [%] (ZEAMA Sileno [2]; [8]): 86%
Reduction [%] (ZEAMA Sileno [2]; [13]): 86%
HER effect + SAF (TRZAS Triso [4]; [14]): 20%
Reduction [%] (TRZAS Triso [4]; [14]): 50%
HER effect + SAF (TRZAS Triso [4]; [15]): 80%
Reduction [%] (TRZAS Triso [4]; [15]): 11%
Reduction [Difference] (TRZAS Triso [4]; [15]): 10
HER effect (TRZAS Triso [4]; HER 2 g a.i./ha, no safener): 90%
HER effect + SAF (ZEAMA Sileno [3]; [16]): 22%
Reduction [%] (ZEAMA Sileno [3]; [16]): 61%
Reduction [Difference] (ZEAMA Sileno [3]; [16]): 35
HER effect (ZEAMA Sileno [3]; HER 8 g a.i./ha): 57%
HER effect + SAF (ZEAMA Sileno [3]; [17]): 35%
Reduction [%] (ZEAMA Sileno [3]; [17]): 63%
Reduction [Difference] (ZEAMA Sileno [3]; [17]): 59
HER effect (ZEAMA Sileno [3]; HER 32 g a.i./ha): 94%

C=CC1(C(=O)NC2COC(C(=O)OC)C2)CC(c2cc(F)cc(F)c2)=NO1 (stereo not drawn) [Example 1.69]
HER effect + SAF (ZEAMA Sileno [2]; [6]): 20%
Reduction [%] (ZEAMA Sileno [2]; [6]): 79%
Reduction [Difference] (ZEAMA Sileno [2]; [6]): 75
Reduction [%] (ZEAMA Sileno [2]; [7]): 67%
Reduction [Difference] (ZEAMA Sileno [2]; [7]): 60

C=CC1(C(=O)NC2COC(C(=O)OC)C2)CC(c2cc(F)cc(F)c2)=NO1 (stereo not drawn) [Example 1.70]
HER effect + SAF (ZEAMA Sileno [2]; [6]): 20%
Reduction [%] (ZEAMA Sileno [2]; [6]): 75%
Reduction [Difference] (ZEAMA Sileno [2]; [6]): 60
HER effect + SAF (ZEAMA Sileno [2]; [7]): 5%
Reduction [%] (ZEAMA Sileno [2]; [7]): 94%
Reduction [Difference] (ZEAMA Sileno [2]; [7]): 80
Reduction [%] (ZEAMA Sileno [2]; [8]): 63%
Reduction [Difference] (ZEAMA Sileno [2]; [8]): 60
HER effect + SAF (ZEAMA Sileno [2]; [13]): 25%
Reduction [%] (ZEAMA Sileno [2]; [13]): 74%
Reduction [Difference] (ZEAMA Sileno [2]; [13]): 70

C=CC1(C(=O)NC2C=C(C(=O)OC)OC2)CC(c2cc(C)cc(C)c2)=NO1 (stereo not drawn) [Example 1.90]
Reduction [%] (ZEAMA Sileno [2]; [13]): 83%
Reduction [Difference] (ZEAMA Sileno [2]; [13]): 25
HER effect (ZEAMA Sileno [2]; HER 80 g a.i./ha pre-emergence, 26 DAT): 30%

COC(=O)C1OCCC1NC(=O)C1(C)CC(c2cc(F)cc(F)c2)=NO1 (stereo not drawn) [Example 1.92]
Reduction [%] (ZEAMA Sileno [2]; [6]): 87%
Reduction [Difference] (ZEAMA Sileno [2]; [6]): 65
HER effect + SAF (ZEAMA Sileno [2]; [7]): 0%
Reduction [%] (ZEAMA Sileno [2]; [7]): 100%
